From ChEMBL document CHEMBL1201862, “PubChem BioAssay data set” (2004)
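Dose response: 5 concentrations. Exposure: 48 h. Format: 96-well plates. Endpoint: linear interpolation; highest concentration if not reached. GI50 is the concentration that inhibits growth by half.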 The source made the active and inactive calls. Rule as the data show it: active = GI50 up to about 1.1 µM and inactive = higher.

How the values were obtained:
Experiment in all cases: growth of human tumour cells (NCI), 48 h
K562 = tested on: K562
HOP-92 = tested on: HOP-92
KM12 = tested on: KM12
HL-60 = tested on: HL-60
SK-MEL-2 = tested on: SK-MEL-2
SK-OV-3 = tested on: SK-OV-3
HCT-116 = tested on: HCT-116
PC-3 = tested on: PC-3
Hs-578T = tested on: Hs-578T
SNB-75 = tested on: SNB-75
MOLT-4 = tested on: MOLT-4
MCF7 = tested on: MCF7
SNB-19 = tested on: SNB-19
SF-295 = tested on: SF-295
CAKI-1 = tested on: CAKI-1
M14 = tested on: M14
SF-268 = tested on: SF-268
EKVX = tested on: EKVX
OVCAR-5 = tested on: OVCAR-5
OVCAR-3 = tested on: OVCAR-3

Row | SMILES | GI50 (K562) | GI50 (HOP-92) | GI50 (KM12) | GI50 (HL-60) | GI50 (SK-MEL-2) | GI50 (SK-OV-3) | GI50 (HCT-116) | GI50 (PC-3) | GI50 (Hs-578T) | GI50 (SNB-75) | GI50 (MOLT-4) | GI50 (MCF7) | GI50 (SNB-19) | GI50 (SF-295) | GI50 (CAKI-1) | GI50 (M14) | GI50 (SF-268) | GI50 (EKVX) | GI50 (OVCAR-5) | GI50 (OVCAR-3)
1 | CN1CCC23c4c5ccc(Oc6nnnn6-c6ccccc6)c4OC2c2[nH]c4ccccc4c2CC3(O)C1C5 (stereo not given) | 1.81 µM (inactive) | 2.07 µM (inactive) | 2.82 µM (inactive) | 1.81 µM (inactive) | 1.78 µM (inactive) | 9.66 µM (inactive) | 1.83 µM (inactive) | 3.68 µM (inactive) | 9.25 µM (inactive) | 2.59 µM (inactive) | 1.84 µM (inactive) | 2.27 µM (inactive) | 7.66 µM (inactive) | 3.95 µM (inactive) | 2.16 µM (inactive) | 1.85 µM (inactive) | 6.89 µM (inactive) | 9.64 µM (inactive) | 17.2 µM (inactive) | 9.4 µM (inactive)
2 | O=c1[nH]c2cc([N+](=O)[O-])c(Nc3c4ccccc4nc4ccccc34)c([N+](=O)[O-])c2[nH]1 | 2.42 µM (inactive) | 2.48 µM (inactive) | 2.26 µM (inactive) | 3.1 µM (inactive) | 2.72 µM (inactive) | 4.04 µM (inactive) | 0.82 µM (active) | 3.32 µM (inactive) | 7.18 µM (inactive) | 3.68 µM (inactive) | 0.938 µM (active) | 2.59 µM (inactive) | 5.02 µM (inactive) | 2.65 µM (inactive) | 2.19 µM (inactive) | 2.12 µM (inactive) | 3.15 µM (inactive) | 2.47 µM (inactive) | 2.4 µM (inactive) | 2.58 µM (inactive)
3 | S=c1nc(N/N=C/c2cccs2)c2cn[nH]c2[nH]1 | 16.3 µM (inactive) | 52.6 µM (inactive) | 6.43 µM (inactive) | 76.4 µM (inactive) | 58.2 µM (inactive) | > 100 µM (inactive) | 16.2 µM (inactive) | 15.1 µM (inactive) | > 100 µM (inactive) | 97.7 µM (inactive) | 14 µM (inactive) | 4.23 µM (inactive) | 58.2 µM (inactive) | 12.4 µM (inactive) | 14.8 µM (inactive) | 33.4 µM (inactive) | 38 µM (inactive) | 31.9 µM (inactive) | 17.2 µM (inactive) | 9.25 µM (inactive)
4 | CC(=N\c1ccncc1)/C(C)=N/c1ccncc1 | 31 µM (inactive) | 22.3 µM (inactive) | 38.3 µM (inactive) | 26.7 µM (inactive) | 20.7 µM (inactive) | > 100 µM (inactive) | 29.8 µM (inactive) | 19.3 µM (inactive) | 28.8 µM (inactive) | > 100 µM (inactive) | 24.4 µM (inactive) | 16.7 µM (inactive) | 27.5 µM (inactive) | 73.5 µM (inactive) | 16.8 µM (inactive) | 18.7 µM (inactive) | 30.4 µM (inactive) | 20.7 µM (inactive) | 17 µM (inactive) | 15.4 µM (inactive)
5 | Cn1cc2c(=O)n3ncn(-c4ccc(Br)cc4)c3nc2n1 | > 100 µM (inactive) | > 100 µM (inactive) | > 100 µM (inactive) | > 100 µM (inactive) | > 100 µM (inactive) | > 100 µM (inactive) | > 100 µM (inactive) | > 100 µM (inactive) | > 100 µM (inactive) | > 100 µM (inactive) | > 100 µM (inactive) | > 100 µM (inactive) | > 100 µM (inactive) | > 100 µM (inactive) | > 100 µM (inactive) | > 100 µM (inactive) | > 100 µM (inactive) | > 100 µM (inactive) | > 100 µM (inactive) | > 100 µM (inactive)
